# Experimental data as given in patent US20260256923A1, “NEW RECRUITMENT ELEMENT OF UBIQUITIN LIGASE AND USE THEREOF” (SHENZHEN LINGGENE BIOTECH CO., LTD., priority 2023, published 2026).
# Legend:
# [1] = G4 structural characteristics, N-methyl mesoporphyrin IX (NMM) fluorescent probe; type: physicochemical; details: 1 μM NMM
# Experimental: Both AS1411 and iSN04 are oligonucleotides specifically binding to NCL. The sequence of AS1411 is SEQ ID NO: 1, and the sequence of iSN04 is SEQ ID NO: 14. AS1411 contains a plurality of GGT motifs, and iSN04 contains one GGT motif. Whether AS1411 and iSN04 have stable G4 structural characteristics was determined. The experimental process was as follows: 5 μM NC (negative control, SEQ ID NO: 15), AS1411, or iSN04 was added to water, and the total volume was 100 μL. The mixture was heated at 95° C. for 7 min and then immediately incubated on ice for 3 min, followed by the addition of 2 μL of N-methyl mesoporphyrin IX (NMM) (purchased from MCE, Cat. No.: HY-133821) to make a final concentration of 1 μM. The resulting mixture was incubated at room temperature for 1 h in the dark. The fluorescence intensity was detected by a microplate reader, with an emission wavelength of 550-700 nm and an excitation wavelength of […].
# Guanine-rich DNA sequences can form more distinct G4 structural characteristics in the presence of metal ions (usually sodium and potassium ions). 5 μM NC (negative control, SEQ ID NO: 15), AS1411, or iSN04 was added to a 100 mM K^+ solution, and the total volume was 100 μL. The mixture was well mixed, heated at 95° C. for 7 min, and then immediately incubated on ice for 3 min, followed by the addition of 2 μL of N-methyl mesoporphyrin IX (NMM) (purchased from MCE, Cat. No.: HY-133821) to make a final concentration of 1 μM. The resulting mixture was incubated at room temperature for 1 h in the dark. The fluorescence intensity was detected by a microplate reader, with an emission wavelength of 550-700 nm and an excitation wavelength of […].
# HeLa cells = experiment: Cell penetration and intracellular colocalization, confocal laser microscope; type: cell-based; details: 500 nM Cy5-labeled, 6 h
# Experimental: HeLa cells were incubated with 500 nM Cy5-labeled CRO or AS1411 for 6 h. After the incubation was completed, immunofluorescence staining was performed on NCL and MDM2, and 4′,6-diamidino-2-phenylindole (DAPI) was used to stain nuclei. The cell penetration of the CRO or AS1411 and the intracellular colocalization of the CRO or AS1411 with NCL and MDM2 were observed under a confocal laser microscope.
# HeLa cells were transfected with si-NC or si-NCL and subsequently incubated with 500 nM Cy5-labeled AS1411 for 6 h. After the incubation was completed, immunofluorescence staining was performed on MDM2, and DAPI was used to stain nuclei. The intracellular colocalization of AS1411 with MDM2 was observed by a confocal laser microscope.
# MDM2 = MDM2 (Homo sapiens, UniProt Q00987); experiment: Biotin-oligonucleotide pull-down with recombinant proteins (MDM2); type: binding; parameters: purchased R&D Systems (MDM2); ACROBiosystems (NCL) E3-202-050 (MDM2); NUL-H5253 (NCL); details: 400 nM 5′-biotin label, 6 μg/mL NCL + 6 μg/mL MDM2
# Sequence of MDM2 (P19338 whole entry partner): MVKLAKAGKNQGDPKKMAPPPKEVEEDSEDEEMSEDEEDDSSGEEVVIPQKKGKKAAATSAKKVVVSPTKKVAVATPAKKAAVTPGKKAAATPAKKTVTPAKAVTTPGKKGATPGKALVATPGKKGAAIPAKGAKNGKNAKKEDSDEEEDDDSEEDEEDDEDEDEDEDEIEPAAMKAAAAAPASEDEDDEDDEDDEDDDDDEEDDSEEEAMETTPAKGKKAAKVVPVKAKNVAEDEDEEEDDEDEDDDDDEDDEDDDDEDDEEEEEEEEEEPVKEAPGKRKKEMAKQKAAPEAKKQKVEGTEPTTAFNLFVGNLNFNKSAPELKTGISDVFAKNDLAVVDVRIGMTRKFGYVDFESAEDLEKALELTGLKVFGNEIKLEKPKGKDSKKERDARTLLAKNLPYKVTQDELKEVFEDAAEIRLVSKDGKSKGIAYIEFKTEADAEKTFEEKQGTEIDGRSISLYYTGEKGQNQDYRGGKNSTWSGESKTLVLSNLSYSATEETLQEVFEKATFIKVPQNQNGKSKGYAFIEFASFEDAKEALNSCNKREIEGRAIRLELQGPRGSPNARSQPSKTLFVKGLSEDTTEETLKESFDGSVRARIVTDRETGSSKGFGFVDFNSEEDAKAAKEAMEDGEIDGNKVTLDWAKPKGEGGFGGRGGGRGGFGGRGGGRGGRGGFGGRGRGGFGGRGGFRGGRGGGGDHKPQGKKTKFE
# Sequence of MDM2 (Q00987 whole entry): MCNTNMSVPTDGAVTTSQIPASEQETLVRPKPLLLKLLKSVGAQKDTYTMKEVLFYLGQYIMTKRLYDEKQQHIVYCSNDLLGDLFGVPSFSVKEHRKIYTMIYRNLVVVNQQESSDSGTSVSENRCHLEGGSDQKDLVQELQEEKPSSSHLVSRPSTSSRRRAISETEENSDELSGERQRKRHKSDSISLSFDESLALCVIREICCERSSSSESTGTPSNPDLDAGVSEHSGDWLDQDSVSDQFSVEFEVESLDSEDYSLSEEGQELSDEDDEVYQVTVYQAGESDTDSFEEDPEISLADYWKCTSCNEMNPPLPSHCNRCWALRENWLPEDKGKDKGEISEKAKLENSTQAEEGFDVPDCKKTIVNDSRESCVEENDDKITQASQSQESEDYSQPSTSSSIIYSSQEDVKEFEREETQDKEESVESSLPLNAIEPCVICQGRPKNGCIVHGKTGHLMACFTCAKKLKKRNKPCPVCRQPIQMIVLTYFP
# Experimental: 6 μg/mL recombinant human NCL and 6 μg/mL recombinant human MDM2 were mixed well and incubated at 4° C. for 7 h. Subsequently, 400 nM CRO, AS1411, or iSN04 labeled by biotin at the 5′ end was added, and the mixture was incubated at 4° C. for 6 h. Streptavidin agarose gel beads (purchased from cytiva, Cat. No.: 17511301) were added, and the mixture was further incubated at 4° C. overnight. The gel beads were washed 4 times with a TBST buffer, and an SDS-PAGE protein loading buffer (purchased from Beyotime, Cat. No.: P0015) was added. The mixture was heated to 100° C. and held for 10 min. After centrifugation, the supernatant was collected. The pull-down product was then detected by western blot assay.
substance,measurement,setting,value
"AS1411: DNA aptamer, GRO binding NCL, SEQ ID NO: 1: 5′-GGTGGTGGTGGTTGTGGTGGTGGTGG-3′",G4 structural characteristics (fluorescence signal intensity),[1]; 5 μM in 100 mM K+ solution,over 10000
same,G4 structural characteristics (fluorescence signal intensity),[1]; 5 μM in water (no K+),over 4000
same,cell penetration,HeLa cells,can penetrate HeLa cells
same,intracellular colocalization with NCL and MDM2,HeLa cells,exhibits significant colocalization with both NCL and MDM2
same,cell penetration when NCL is silenced,HeLa cells; si-NCL,silencing NCL can block AS1411 from penetrating cells
same,intracellular colocalization with MDM2 when NCL is silenced,HeLa cells; si-NCL,no observed colocalization between AS1411 and MDM2
same,binding / recruitment of MDM2,MDM2,recruits MDM2 in large amounts depending on its interaction with NCL
